Columns and labels:
[1] = system: gox-1, ghpr-1, gcst-1, mel-32 and gcs-1 genes; assay: Quantitative real-time PCR of glycolate pathway genes; format: in vivo, C. elegans
Method: The differential expression of F41E6.5 (gox-1), C31C9.2 (ghpr-1), gcst-1, mel-32 and gcs-1 genes was measured using qRT-PCR. ˜5000 L1 N2 worms were exposed to each condition for 3 days at 15° Cas described above and then washed three times with H2O. Total RNA was isolated using the RNeasy Mini Kit (Qiagen) and equal amounts of all samples were reverse transcribed with SuperScript Ill (Invitrogen) using oligo(dT) 12-18 primers. cDNA quality was tested using standard PCR. qRT-PCR was performed using pre-designed TaqMan Gene Expression Assay (ThermoFischer Scientific) with at least three samples in triplicates. For the relative quantification of gene expression levels, the 2^−ΔΔCT method and results were normalized to the expression level of the cdc-42 gene. Expression levels were averaged over technical and biological replicates, […]

[2] = 0.25% hydrogen peroxide alone in drinking water
C. elegans [3] = assay: Oxygen consumption rate (OCR), Seahorse XFe96; format: in vivo; conditions: H2O2 alone (100 mM)
Method: Oxygen consumption of worms was measured with a Seahorse XFe96 system (Seahorse Bioscience, North Billerica, MA), as previously described^4. L3 larvae of the different strains were grown on plates or in liquid culture and supplemented for 2-4 days as described for each experiment. After removing bacteria and debris, approximately 100 worms were pipetted into each well of a 96-well Seahorse XF^e assay plate and OCR was measured until it stabilized. Then, 3 subsequent measurements were made at 6.5-min intervals. Finally, the exact number of worms in each well was counted and used for normalization. A small number of abnormal readings were also filtered out at this stage. On average, 7-8 wells (technical replicates) were used for each condition. Normalized OCR values were averaged for the last 3 measurements for each strain and condition. Four biological replicates were analyzed for each condition.

C. elegans [4] = assay: Quantification of glutathione (GSH/GSSG-Glo); format: in vivo
Method: Sample preparation was performed as described previously with some modifications^6. From each condition 10,000 synchronized animals were harvested and washed 3 times with sterile water. […] To thoroughly lyse the worms, 5 cycles of freezing and thawing were performed in a water bath at 37° C., followed by a 1-min sonication. The samples were then centrifuged and the supernatant tested for protein estimation and GSH quantification. Total GSH, GSSG, and GSH/GSSG ratios were quantified using the GSH/GSSG-Glo assay kit (Promega) following the instructions of the manufacturer. Briefly, each sample was tested in triplicate in 96-well culture plates with total glutathione or GSSG lysis reagent, for total glutathione or GSSG measurement, respectively. The GSH probe, luciferin-NT, was converted to luciferin, which is coupled to a firefly luciferase. The plates were then read in an […] plate reader (Perkin Elmer, United States). The GSSG value was subtracted from the total glutathione to calculate GSH levels and GSH/GSSG ratio. Four biological replicates were analyzed for each condition.

C. elegans [5] = assay: Growth rate / worm size; format: in vivo; conditions: H2O2 alone (100 mM)
Method: Synchronized L1 worms were incubated at 15° C. on plates or in liquid culture and exposed to different conditions as indicated. Single worms were selected randomly from the plates or aliquots were taken from the liquid cultures and added to NGM plates for immediate visualization. 25 worms per treatment were measured at 24-48 hr intervals and all growth curves were done four times.

C. elegans [6] = assay: NADPH and NADP+ quantification by LC-MS; format: in vivo
Method: To measure NADP^+ and NADPH from C. elegans, 10000-15000 L1 worms were exposed to each condition in duplicates for 3 days and then washed four times with H2O. […] 25 µM solutions of each nucleotide were treated in parallel as standards. Homogenization for 15 min at 4° C. and 300 g was carried out in a TissueLyser II (Qiagen) after adding ⅓ volume of 0.5 mm zirconium beads. The resulting mixture was centrifuged at 13,000 g and the supernatant transferred to a new tube.
LC-MS/MS analysis of the samples was performed on a high-performance liquid chromatography (HPLC) system (1200 Agilent) coupled online to G2-S QTOF (Waters). For normal phase chromatography Bridge Amide 3.5 ml (2.1×100 mm) column from Waters was used. The mobile phase composed of eluent A and eluent B (40% acetonitrile, 0.1 mM ammonium acetate and 0.01% NH40H) was applied with the following gradient program: Eluent B, from 0% to 100% within 18 min; 100% from 18 min to 21 min; 0% from 21 min to 26 min. The flow rate was set at 0.3 ml/min. The spray voltage was set at 3.0 kV and the source temperature was set at 120° C. Nitrogen was used as both cone gas (50 L/h) and desolvation gas (800 L/h), and argon as the collision gas. MS^E mode was used with Bridge Amide 3.5 µl (2.1×100 mm) column in ESI negative ionization polarity for the detection of the nucleosides. Mass chromatograms and mass spectral data were acquired and processed by MassLynx software (Waters). Three and four biological replicates were analyzed for each condition of mel-32 RNAi and EV, respectively.

C. elegans [7] = system: C. elegans
Method: A population of synchronized L1 larvae was added to 30-ml glass tubes containing 2.5 ml of S-complete medium (liquid culture)^2 and NA22 or induced RNAi bacteria at an OD600 of 1.9. […] Worms were incubated at 15° C. and 150 rpm in a shaking incubator for 2-6 days, refreshing the medium every 2 days.
Briefly, for the treatment during larval development worms were incubated in liquid culture under different conditions from L1 until L4, and then transferred onto control NGM plates until death. During the reproductive period (days 1-8), worms were transferred to fresh plates every other day to separate them from their progeny. […] Worms that were missing, displaying internal egg hatching, losing vulva integrity, and burrowing into NGM agar were censored. Progeny number and embryonic lethality was determined the day after transferring the adult animals to fresh plates. Statistical analyses of lifespan were calculated by Log-rank (Mantel-Cox) tests on the Kaplan-Meier curves in GraphPad Prism. For progeny number and embryonic lethality, the significance of differences between conditions was determined using an unpaired t-test in GraphPadPrism 8.0. All experiments were performed in triplicate.

[8] = system: Staphylococcus aureus bacterial culture (ATCC 25923); assay: Antimicrobial effect on bacterial culture, colony count; format: cell-based; conditions: 2.5% solution
Method: A composition comprising 0.5% Glycine and 0.3% Hydrogen peroxide was prepared on 0.9% sodium chloride solution. Water was sterile purified.
After incubation for 4-5 minutes, sample from each test tube was diluted 1000 times with sterile water, and […] was spread evenly on standard tryptic soy agar petri plate. Plates were incubated at 37° C. for 24 hours and bacterial colonies were counted. As a positive control (100% survival), was taken a sample, where the composition was neutralized by sodium bisulfite instantly (FIG. 10).

| Structure (SMILES) | Expression of gcst-1 ([1]; peroxide or glycolate supplementation) | Expression of gox-1, ghpr-1, mel-32 and gcs-1 ([1]; worms exposed to different peroxide concentrations, 3 days) | Effect on weight [2] | Respiration rate (OCR) (C. elegans [3]) | Oxidized form of glutathione (GSSG) (C. elegans [4]; H2O2 alone (100 mM)) | Total glutathione (C. elegans [4]; H2O2 alone (100 mM), 3 days) | GSH/GSSG ratio (C. elegans [4]; H2O2 alone, control 107.5) | Reduction of GSH/GSSG ratio (C. elegans [4]; peroxide alone vs control) | Growth (C. elegans [5]) | Ratio of NADPH to NADP+ (C. elegans [6]; H2O2 alone (100 mM), 3 days) | Ratio of NADPH to NADP+ (C. elegans [6]; mel-32 knocked down worms, H2O2 alone) | Reproductive capacity (C. elegans [7]; H2O2 alone) | Lifespan (C. elegans [7]; exposed to H2O2 alone during larval stages, then control plates, control worms 18.5+/−1.19 days) | Antimicrobial effect of the neutralizer on itself [8] |
| --- | --- | --- | --- | --- | --- | --- | --- | --- | --- | --- | --- | --- | --- | --- |
| OO [H2O2, hydrogen peroxide] | not significantly altered | significant induction | slight positive effect | decline in the respiration rate | 513 % of the control | 51 % of the control | 11.3 | 10 -fold | growth delay | significantly decreased | further decline | reduced reproductive capacity | 5.88 ± 1.47 days |  |
| O=S([O-])O.[Na+] [sodium bisulfite] |  |  |  |  |  |  |  |  |  |  |  |  |  | no antimicrobial effect |

Source: patent US20230414657A1, “Novel compositions for neutralizing toxic effects of hydrogen peroxide in living cells or tissues” (Dzala LLC, priority 2020, published 2023)
